Tests used:
Assay in all cases: relative viability (nuclei count vs DMSO), 5 days (fraction); higher = more cells survive
SW 1573 = test system: SW 1573
How it was run: (§1)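 After 5 days of treatment, lung cancer cells in 1536-well plates were fixed and stained in a single step (final 0.05% Triton X-100, 1% formaldehyde, 1 ug/ml Hoechst) and their nuclei counted on 4× images. Treatment had been applied by pin tool the day after seeding as one drug alone or as a fixed anchor-drug dose with five library-drug doses (not always all listed) in √10 steps. Relative viability is the nuclei count of treated wells divided by that of vehicle wells, and values are medians of duplicate plates.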

ABC-1 = test system: ABC-1
How it was run: as §1

ChaGo-K-1 = test system: ChaGo-K-1
How it was run: as §1

HCC-44 = test system: HCC-44
How it was run: as §1

NCI-H2228 = test system: NCI-H2228
How it was run: as §1

NCI-H2405 = test system: NCI-H2405
How it was run: as §1

HCC-366 = test system: HCC-366
How it was run: as §1

NCI-H2347 = test system: NCI-H2347
How it was run: as §1

NCI-H3122 = test system: NCI-H3122
How it was run: as §1

HCC-827 = test system: HCC-827
How it was run: as §1

HCC-15 = test system: HCC-15
How it was run: as §1

NCI-H1944 = test system: NCI-H1944
How it was run: as §1

NCI-H1355 = test system: NCI-H1355
How it was run: as §1

NCI-H2085 = test system: NCI-H2085
How it was run: as §1

COR-L23 = test system: COR-L23
How it was run: as §1

PC-14 = test system: PC-14
How it was run: as §1

EPLC-272H = test system: EPLC-272H
How it was run: as §1

NCI-H2023 = test system: NCI-H2023
How it was run: as §1

LCLC-103H = test system: LCLC-103H
How it was run: as §1

NCI-H1734 = test system: NCI-H1734
How it was run: as §1

NCI-H2009 = test system: NCI-H2009
How it was run: as §1

SMILES: CN1CCN(CCOc2cc(OC3CCOCC3)c3c(Nc4c(Cl)ccc5c4OCO5)ncnc3c2)CC1 [Saracatinib] + C[C@@H](Oc1cc(-c2cnn(C3CCNCC3)c2)cnc1N)c1c(Cl)ccc(F)c1Cl [Crizotinib] (partner 1 µM)
- relative viability (SW 1573; first compound 0.02 µM): 0.744
- relative viability (SW 1573; first compound 0.2 µM): 0.801
- relative viability (SW 1573; first compound 0.6325 µM): 0.903
- relative viability (SW 1573; first compound 2 µM): 0.591
- relative viability (ABC-1; first compound 0.02 µM): 1.1
- relative viability (ABC-1; first compound 0.2 µM): 1.06
- relative viability (ABC-1; first compound 0.6325 µM): 0.918
- relative viability (ABC-1; first compound 2 µM): 0.705
- relative viability (ChaGo-K-1; first compound 0.02 µM): 1.08
- relative viability (ChaGo-K-1; first compound 0.2 µM): 0.906
- relative viability (ChaGo-K-1; first compound 0.6325 µM): 1.1
- relative viability (ChaGo-K-1; first compound 2 µM): 0.809
- relative viability (HCC-44; first compound 0.02 µM): 0.859
- relative viability (HCC-44; first compound 0.2 µM): 0.738
- relative viability (HCC-44; first compound 0.6325 µM): 0.952
- relative viability (HCC-44; first compound 2 µM): 1.01
- relative viability (NCI-H2228; first compound 0.02 µM): 0.477
- relative viability (NCI-H2228; first compound 0.2 µM): 0.326
- relative viability (NCI-H2228; first compound 0.6325 µM): 0.306
- relative viability (NCI-H2228; first compound 2 µM): 0.213
- relative viability (NCI-H2405; first compound 0.02 µM): 0.854
- relative viability (NCI-H2405; first compound 0.2 µM): 0.788
- relative viability (NCI-H2405; first compound 0.6325 µM): 0.751
- relative viability (NCI-H2405; first compound 2 µM): 0.501
- relative viability (HCC-366; first compound 0.02 µM): 0.547
- relative viability (HCC-366; first compound 0.6325 µM): 0.435
- relative viability (HCC-366; first compound 2 µM): 0.182
- relative viability (NCI-H2347; first compound 0.02 µM): 0.732
- relative viability (NCI-H2347; first compound 0.2 µM): 0.686
- relative viability (NCI-H2347; first compound 0.6325 µM): 1.03
- relative viability (NCI-H2347; first compound 2 µM): 0.486
- relative viability (NCI-H3122; first compound 0.02 µM): 0.28
- relative viability (NCI-H3122; first compound 0.6325 µM): 0.226
- relative viability (NCI-H3122; first compound 2 µM): 0.187
- relative viability (HCC-827; first compound 0.02 µM): 0.943
- relative viability (HCC-827; first compound 0.2 µM): 0.452
- relative viability (HCC-827; first compound 0.6325 µM): 0.247
- relative viability (HCC-827; first compound 2 µM): 0.193
- relative viability (HCC-15; first compound 0.02 µM): 0.817
- relative viability (HCC-15; first compound 0.2 µM): 0.693
- relative viability (HCC-15; first compound 0.6325 µM): 0.805
- relative viability (HCC-15; first compound 2 µM): 0.765
- relative viability (NCI-H1944; first compound 0.02 µM): 1.11
- relative viability (NCI-H1944; first compound 0.6325 µM): 1.09
- relative viability (NCI-H1944; first compound 2 µM): 0.67
- relative viability (NCI-H1355; first compound 0.02 µM): 1.06
- relative viability (NCI-H1355; first compound 0.2 µM): 1.13
- relative viability (NCI-H1355; first compound 0.6325 µM): 1.08
- relative viability (NCI-H1355; first compound 2 µM): 0.925
- relative viability (NCI-H2085; first compound 0.02 µM): 0.763
- relative viability (NCI-H2085; first compound 0.2 µM): 0.761
- relative viability (NCI-H2085; first compound 0.6325 µM): 0.766
- relative viability (NCI-H2085; first compound 2 µM): 0.755
- relative viability (COR-L23; first compound 0.02 µM): 0.65
- relative viability (COR-L23; first compound 0.2 µM): 0.52
- relative viability (COR-L23; first compound 0.6325 µM): 0.658
- relative viability (COR-L23; first compound 2 µM): 0.558
- relative viability (PC-14; first compound 0.02 µM): 0.993
- relative viability (PC-14; first compound 0.2 µM): 0.555
- relative viability (PC-14; first compound 0.6325 µM): 0.424
- relative viability (PC-14; first compound 2 µM): 0.167
- relative viability (EPLC-272H; first compound 0.02 µM): 0.96
- relative viability (EPLC-272H; first compound 0.2 µM): 0.826
- relative viability (EPLC-272H; first compound 0.6325 µM): 0.779
- relative viability (EPLC-272H; first compound 2 µM): 0.729
- relative viability (NCI-H2023; first compound 0.02 µM): 0.769
- relative viability (NCI-H2023; first compound 0.2 µM): 0.428
- relative viability (NCI-H2023; first compound 0.6325 µM): 0.391
- relative viability (NCI-H2023; first compound 2 µM): 0.356
- relative viability (LCLC-103H; first compound 0.02 µM): 1.11
- relative viability (LCLC-103H; first compound 0.2 µM): 0.817
- relative viability (LCLC-103H; first compound 0.6325 µM): 1.13
- relative viability (LCLC-103H; first compound 2 µM): 0.976
- relative viability (NCI-H1734; first compound 0.02 µM): 0.751
- relative viability (NCI-H1734; first compound 0.6325 µM): 0.656
- relative viability (NCI-H1734; first compound 2 µM): 0.507
- relative viability (NCI-H2009; first compound 0.02 µM): 1.03
- relative viability (NCI-H2009; first compound 0.2 µM): 0.756
- relative viability (NCI-H2009; first compound 0.6325 µM): 0.896
- relative viability (NCI-H2009; first compound 2 µM): 0.691

From the supplement of paper PMC10307832
